Positions of bridges follow the written chain, without caps; N, C: chain ends. No end group written: not given here.
What was measured:
[1] = system: glaucoma animal model having microbead-induced elevated intraocular pressure; experiment: Glaucoma test: intraocular pressure; format: in vivo, mouse; conditions: for intraocular pressure change: 20 ug/ml applied to eye once daily
Procedure: (§1) For control drug, Taflotan eye drops (Santen Pharmaceutical Co., Ltd.) were used, and for test drug, Taflotan eye drops+HU024 (SEQ ID NO:2) (sample 1), HU024 (SEQ ID NO:2) (sample 2), HU025 (SEQ ID NO:3) (sample 3), HU026 (SEQ ID NO:4) (sample 4), and HU027 (SEQ ID NO:5) (sample 5) were used, and testing was performed on glaucoma animal model having microbead-induced elevated intraocular pressure. In experimental animal model, Rompun solution for injection and zoletil were mixed and used to put the experimental animal under anesthesia, topical anesthetic Alcaine was applied to eye, 1×106 microbead/mL 1 μL was injected into anterior chamber using micro glass needle to induce an increase in intraocular pressure for 2 weeks (IOVS 2011 Vol. 52 36-).
(§2) The control drug and 5 samples were provided to the experimental animal having the elevated intraocular pressure for 2 weeks, 5 samples were applied to eye once daily, comparative verification of efficacy was performed, and intraocular pressure reduction and optic nerve cell in the retina was observed through administration for 4 weeks.
(§3) The intraocular pressure was measured using a contact-type intraocular pressure meter Tono lab's tonometer TV02 model. […] In 5-7 days after fluorescent probe injection, the eye was enucleated and fixed in 4% paraformaldehyde at room temperature for 4 hours. The retina was separated from choroid of the fixed eye and mounted on a slide. In each experimental group slide, optic nerve cell expressing fluorescence was detected using fluorescence microscope, images were taken at a magnification of ×40 and ×200, and data was collected.

[2] = system: optic nerve cell in the retina of glaucoma animal model; experiment: Glaucoma test: optic nerve cell in the retina (Fluorogold); format: in vivo, mouse; conditions: applied to eye once daily, Fluorogold labelling
Procedure: as §1, §2, §3

[3] = Hair growth test: body weight; format: in vivo; conditions: skin
Procedure: (§4) This test was conducted to assess the influence on hair growth of C57BL/6 mouse when 4 types of test substances, HU024 (SEQ ID NO:2), HU025 (SEQ ID NO:3), HU026 (SEQ ID NO:4), and HU027 (SEQ ID NO:5), were applied to the skin for 14 days.
(§5) The group design was set to negative control (sterile water for injection G1), test substance HU024 (SEQ ID NO:2) 20 ug/head/day (G2), test substance HU024 (SEQ ID NO:2) 60 ug/head/day (G3), test substance HU025 (SEQ ID NO:3) 20 ug/head/day (G4), test substance HU025 (SEQ ID NO:3) 60 ug/head/day (G5), test substance HU026 (SEQ ID NO:4) 20 ug/head/day (G6), test substance HU026 (SEQ ID NO:4) 60 ug/head/day (G7), test substance HU027 (SEQ ID NO:5) 20 ug/head/day (G8), test substance HU027 (SEQ ID NO:5) 60 ug/head/day (G9) and positive control minoxyl 3% (G10) administered groups. Each group had 10 animals.
(§6) After the animal was put under anesthesia using zoletil (1 mL/kg, i.p), the back of the animal was primarily shaved using a depilator, and Veet depilatory was evenly applied on the back. After about 5 minutes, the applied site was cleaned up using gauze moistened with sterile water for injection. Only animal whose shaved back was scarlet in color was used for group separation. The test substance was applied to the same site daily once per day, 7 times per week for 14 days, and the test substance was evenly applied to the shaved site (on the back) by rubbing with a glass rod about 10 times.
The test item was measurements of dead animal, general syndrome, weight change, hair growing area and hair weight, and comparison with negative control was conducted.
(§7) The measurement results were analyzed using SPSS (ver. 10.1K), Duncan t-test for weight changes was conducted through one-way analysis of variance, hair weight was compared between groups using Student's t-test, and hair growing area was compared between groups through nonparametric multiple comparison procedures Whitney-Mann methods. P<0.05 was determined to be statistically significant.

[4] = system: hair growth of C57BL/6 mouse; experiment: Hair growth test: hair growing area; format: in vivo
Procedure: as §4, §5, §6
The hair growing area (%) relative to the test substance-applied area was measured and determined, and Image analyzer program (Image Pro Plus ver. 6.3, Cybermetics, USA) was used to measure. […] Imaging was performed together with the measurements on the date when the hair area was measured. On the next day after the end of application, the animals were killed by CO2 gas, and hair on the hair growing area was removed by a depilator and hair weight was measured.
as §7

[5] = system: hair growth of C57BL/6 mouse; experiment: Hair growth test: hair weight; format: in vivo
Procedure: as §4, §5, §6
The hair growing area (%) relative to the test substance-applied area was measured and determined, and Image analyzer program (Image Pro Plus ver. 6.3, Cybermetics, USA) was used to measure. It was measured on the 1st, 3rd, 7th, 10th and 14th days after test substance administration. Imaging was performed together with the measurements on the date when the hair area was measured. On the next day after the end of application, the animals were killed by CO2 gas, and hair on the hair growing area was removed by a depilator and hair weight was measured.
as §7

| Molecule | optic nerve cell death / protection [2] | BODY WEIGHTS ([3]; 20 ug/head/day, Day 1) [g] | BODY WEIGHTS ([3]; 20 ug/head/day, Day 7) [g] | BODY WEIGHTS ([3]; 20 ug/head/day, Day 11) [g] | BODY WEIGHTS ([3]; 60 ug/head/day, Day 1) [g] | BODY WEIGHTS ([3]; 60 ug/head/day, Day 7) [g] | BODY WEIGHTS ([3]; 60 ug/head/day, Day 11) [g] | HAIR AREA (%) ([4]; 20 ug/head/day, Day 1) | HAIR AREA (%) ([4]; 20 ug/head/day, Day 4) | HAIR AREA (%) ([4]; 20 ug/head/day, Day 7) | HAIR AREA (%) ([4]; 20 ug/head/day, Day 10) | HAIR AREA (%) ([4]; 20 ug/head/day, Day 14) | HAIR AREA (%) ([4]; 60 ug/head/day, Day 1) | HAIR AREA (%) ([4]; 60 ug/head/day, Day 4) | HAIR AREA (%) ([4]; 60 ug/head/day, Day 7) | HAIR AREA (%) ([4]; 60 ug/head/day, Day 10) | HAIR AREA (%) ([4]; 60 ug/head/day, Day 14) | HAIR WEIGHTS ([5]; 20 ug/head/day for 14 days) [g] | HAIR WEIGHTS ([5]; 60 ug/head/day for 14 days) [g] | intraocular pressure change [1] | other results |
| --- | --- | --- | --- | --- | --- | --- | --- | --- | --- | --- | --- | --- | --- | --- | --- | --- | --- | --- | --- | --- | --- |
| CC(C)OC(=O)CCC/C=C\C[C@@H]1[C@@H](/C=C/C(F)(F)COc2ccccc2)[C@H](O)C[C@@H]1O [Tafluprost, reference compound] | protection from optic nerve cell death was observed | – | – | – | – | – | – | – | – | – | – | – | – | – | – | – | – | – | – | – | intraocular pressure numerical value ([1]; positive control, eye drops): 15.9±2.9 mmHg; intraocular pressure reduction as compared to negative control ([1]; positive control, eye drops): 20.89% |
| HU026 (TRGDCDLPEFCP; disulfide 5-11; listed as Homo sapiens) | protection from optic nerve cell death was observed | 21.20 ± 0.77 | 22.48 ± 1.12 | 23.75 ± 1.27 | 21.58 ± 0.61 | 22.80 ± 1.03 | 23.83 ± 1.30 | 0.10 ± 0.05 | 0.13 ± 0.07 | 0.43 ± 0.30 | 7.67 ± 4.54 | 56.64 ± 12.26 | 0.07 ± 0.04 | 0.22 ± 0.13 | 0.69 ± 0.37 | 13.54 ± 4.75 | 65.41 ± 11.62 | 0.021 ± 0.008 | 0.026 ± 0.007 | the intraocular pressure did not reduce | – |
| NH2—RPTRGDCDLPEFCPG—COOH (H-RPTRGDCDLPEFCPG-OH; cysteine pairing not given here; listed as Homo sapiens) [HU025] | protection from optic nerve cell death was observed | 21.20 ± 1.23 | 22.63 ± 1.01 | 23.77 ± 1.17 | 21.53 ± 0.63 | 23.20 ± 0.83 | 24.23 ± 1.02 | 0.04 ± 0.03 | 0.06 ± 0.05 | 0.47 ± 0.22 | 2.04 ± 0.66 | 39.88 ± 8.74 | 0.04 ± 0.04 | 0.42 ± 0.33 | 0.72 ± 0.51 | 19.61 ± 9.01 | 75.45 ± 6.65 | 0.005 ± 0.002 | 0.021 ± 0.007 | had an effect in reducing the intraocular pressure | intraocular pressure change ([1]; listed as sample 3): A reduction in intraocular pressure was observed |
| NH2—RPTRGDCDL—COOH (H-RPTRGDCDL-OH; listed as Homo sapiens) [HU027] | – | 21.71 ± 0.59 | 23.27 ± 0.71 | 23.98 ± 0.79 | 21.77 ± 0.87 | 23.07 ± 1.13 | 23.97 ± 1.14 | 0.13 ± 0.13 | 0.32 ± 0.14 | 0.44 ± 0.17 | 8.81 ± 3.57 | 56.95 ± 9.83 | 0.17 ± 0.11 | 0.33 ± 0.22 | 0.50 ± 0.26 | 8.20 ± 3.43 | 61.95 ± 11.30 | 0.010 ± 0.003 | 0.016 ± 0.005 | – | – |
